According to the kinase profiling compilation of Christmann-Franck et al. (2016):

Tests used:
Experiment in all cases: KINOMEscan competition binding
Details in all cases: compound 1.0 µM
[1] = target: ACVR1 (human) (UniProt Q04771)
[2] = target: BTK (human) (UniProt Q06187)
[3] = target: CAMK1D (human) (UniProt Q8IU85)
[4] = target: CDC42BPG (human) (UniProt Q6DT37)
[5] = target: CDK18 (human) (UniProt Q07002)
[6] = test system: CPK1 (P.falciparum)
[7] = target: CSNK1A1 (human) (UniProt P48729)
[8] = target: EPHB1 (human) (UniProt P54762)
[9] = target: ERBB4 (human) (UniProt Q15303)
[10] = target: FES (human) (UniProt P07332)
[11] = target: FYN (human) (UniProt P06241)
[12] = target: GRK7 (human) (UniProt Q8WTQ7)
[13] = test system: KIT (human), P10721 [V559D/T670I]
[14] = target: LIMK1 (human) (UniProt P53667)
[15] = target: MAP2K4 (human) (UniProt P45985)
[16] = target: MAP3K2 (human) (UniProt Q9Y2U5)
[17] = target: MAP4K2 (human) (UniProt Q12851)
[18] = target: MAPK12 (human) (UniProt P53778)
[19] = target: MAPK13 (human) (UniProt O15264)
[20] = target: MAPK7 (human) (UniProt Q13164)
[21] = target: MAPKAPK5 (human) (UniProt Q8IW41)
[22] = target: MST1R (human) (UniProt Q04912)
[23] = target: MTOR (human) (UniProt P42345)
[24] = target: NEK4 (human) (UniProt P51957)
[25] = target: NTRK3 (human) (UniProt Q16288)
[26] = target: OXSR1 (human) (UniProt O95747)
[27] = target: PAK3 (human) (UniProt O75914)
[28] = target: PDGFRA (human) (UniProt P16234)
[29] = test system: PIK3CA (human), P42336 [M1043I]
[30] = target: PKN1 (human) (UniProt Q16512)
[31] = target: PLK3 (human) (UniProt Q9H4B4)
[32] = target: PTK6 (human) (UniProt Q13882)
[33] = target: RIPK1 (human) (UniProt Q13546)
[34] = target: STK24 (human) (UniProt Q9Y6E0)
[35] = target: STK3 (human) (UniProt Q13188)
[36] = target: STK38 (human) (UniProt Q15208)
[37] = target: STK4 (human) (UniProt Q13043)
[38] = target: TAOK1 (human) (UniProt Q7L7X3)
[39] = target: TGFBR2 (human) (UniProt P37173)
[40] = target: TLK1 (human) (UniProt Q9UKI8)
[41] = target: TLK2 (human) (UniProt Q86UE8)
[42] = target: TNIK (human) (UniProt Q9UKE5)
[43] = target: VRK2 (human) (UniProt Q86Y07)

TNIK (human), sequence (Q9UKE5 whole entry, looked up): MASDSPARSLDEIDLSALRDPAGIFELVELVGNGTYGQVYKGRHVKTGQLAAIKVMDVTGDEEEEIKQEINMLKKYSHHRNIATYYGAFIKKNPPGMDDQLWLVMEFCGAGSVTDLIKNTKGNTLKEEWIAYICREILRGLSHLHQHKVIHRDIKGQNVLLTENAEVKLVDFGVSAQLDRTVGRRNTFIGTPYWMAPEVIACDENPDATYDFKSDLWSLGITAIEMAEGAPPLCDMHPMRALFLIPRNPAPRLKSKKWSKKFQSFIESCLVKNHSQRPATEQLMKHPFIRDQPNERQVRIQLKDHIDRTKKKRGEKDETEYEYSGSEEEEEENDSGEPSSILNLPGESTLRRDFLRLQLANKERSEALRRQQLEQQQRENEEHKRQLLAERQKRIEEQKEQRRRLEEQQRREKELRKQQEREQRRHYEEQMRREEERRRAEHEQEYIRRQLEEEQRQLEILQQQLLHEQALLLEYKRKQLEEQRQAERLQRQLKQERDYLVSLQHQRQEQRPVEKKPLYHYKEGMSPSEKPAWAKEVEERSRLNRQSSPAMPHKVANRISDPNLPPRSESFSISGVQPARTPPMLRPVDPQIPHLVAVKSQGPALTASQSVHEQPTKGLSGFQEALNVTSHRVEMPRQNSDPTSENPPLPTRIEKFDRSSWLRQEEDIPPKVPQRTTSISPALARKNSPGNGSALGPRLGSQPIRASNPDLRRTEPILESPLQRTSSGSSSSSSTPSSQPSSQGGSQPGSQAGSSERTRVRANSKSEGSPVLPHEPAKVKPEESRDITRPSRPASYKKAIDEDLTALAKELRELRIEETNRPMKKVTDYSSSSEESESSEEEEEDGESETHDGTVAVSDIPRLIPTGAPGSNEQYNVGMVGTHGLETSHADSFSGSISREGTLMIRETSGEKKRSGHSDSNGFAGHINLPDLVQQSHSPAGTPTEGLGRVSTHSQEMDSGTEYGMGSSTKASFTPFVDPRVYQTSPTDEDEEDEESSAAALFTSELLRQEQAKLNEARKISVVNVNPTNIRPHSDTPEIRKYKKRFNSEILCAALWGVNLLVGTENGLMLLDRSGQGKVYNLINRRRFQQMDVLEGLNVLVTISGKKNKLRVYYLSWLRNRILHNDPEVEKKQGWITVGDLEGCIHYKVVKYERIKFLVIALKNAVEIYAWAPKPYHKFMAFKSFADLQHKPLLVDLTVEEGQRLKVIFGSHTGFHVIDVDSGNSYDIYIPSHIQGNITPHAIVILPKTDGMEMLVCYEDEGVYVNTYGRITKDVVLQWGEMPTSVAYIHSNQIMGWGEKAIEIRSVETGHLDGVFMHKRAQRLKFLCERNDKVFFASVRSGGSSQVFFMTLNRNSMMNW
MAPKAPK5 (human), sequence (Q8IW41 whole entry, looked up): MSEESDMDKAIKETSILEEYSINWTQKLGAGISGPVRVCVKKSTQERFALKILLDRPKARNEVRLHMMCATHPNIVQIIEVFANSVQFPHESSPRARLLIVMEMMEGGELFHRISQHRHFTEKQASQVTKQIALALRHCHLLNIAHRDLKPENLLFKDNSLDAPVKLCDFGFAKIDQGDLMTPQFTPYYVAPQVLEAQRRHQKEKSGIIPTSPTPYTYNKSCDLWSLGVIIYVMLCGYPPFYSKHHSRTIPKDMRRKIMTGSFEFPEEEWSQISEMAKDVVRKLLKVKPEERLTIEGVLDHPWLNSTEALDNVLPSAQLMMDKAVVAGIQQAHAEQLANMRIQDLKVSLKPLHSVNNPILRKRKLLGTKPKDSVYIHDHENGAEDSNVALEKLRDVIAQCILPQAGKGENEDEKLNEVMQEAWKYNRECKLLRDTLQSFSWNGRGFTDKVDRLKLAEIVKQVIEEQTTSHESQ
MAP3K2 (human), sequence (Q9Y2U5 whole entry, looked up): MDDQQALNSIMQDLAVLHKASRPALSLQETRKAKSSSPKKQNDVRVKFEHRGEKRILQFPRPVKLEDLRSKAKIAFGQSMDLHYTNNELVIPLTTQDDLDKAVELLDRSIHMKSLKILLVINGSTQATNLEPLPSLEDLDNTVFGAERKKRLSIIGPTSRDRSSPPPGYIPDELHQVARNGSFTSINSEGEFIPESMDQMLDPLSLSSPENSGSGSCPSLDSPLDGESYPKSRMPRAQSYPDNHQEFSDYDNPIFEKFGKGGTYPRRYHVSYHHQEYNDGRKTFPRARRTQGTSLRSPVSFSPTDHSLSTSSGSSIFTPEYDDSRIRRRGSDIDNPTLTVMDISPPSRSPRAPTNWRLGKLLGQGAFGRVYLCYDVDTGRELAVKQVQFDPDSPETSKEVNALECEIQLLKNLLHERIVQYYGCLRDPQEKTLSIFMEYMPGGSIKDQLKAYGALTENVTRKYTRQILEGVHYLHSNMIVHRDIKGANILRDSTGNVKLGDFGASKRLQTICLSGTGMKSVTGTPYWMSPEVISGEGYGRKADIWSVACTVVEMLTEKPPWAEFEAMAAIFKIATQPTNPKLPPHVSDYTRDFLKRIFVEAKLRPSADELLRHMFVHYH
CAMK1D (human), sequence (Q8IU85 whole entry, looked up): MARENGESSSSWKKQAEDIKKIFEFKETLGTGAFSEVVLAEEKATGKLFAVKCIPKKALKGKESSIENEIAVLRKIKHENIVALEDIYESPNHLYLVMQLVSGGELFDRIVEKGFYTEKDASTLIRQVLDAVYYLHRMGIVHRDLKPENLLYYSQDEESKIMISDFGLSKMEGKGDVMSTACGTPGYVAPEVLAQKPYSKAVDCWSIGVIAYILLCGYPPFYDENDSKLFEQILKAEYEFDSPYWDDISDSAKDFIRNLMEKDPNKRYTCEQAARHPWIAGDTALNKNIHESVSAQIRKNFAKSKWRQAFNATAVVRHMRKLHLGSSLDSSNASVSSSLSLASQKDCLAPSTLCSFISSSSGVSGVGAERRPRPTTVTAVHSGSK
MAP2K4 (human), sequence (P45985 whole entry, looked up): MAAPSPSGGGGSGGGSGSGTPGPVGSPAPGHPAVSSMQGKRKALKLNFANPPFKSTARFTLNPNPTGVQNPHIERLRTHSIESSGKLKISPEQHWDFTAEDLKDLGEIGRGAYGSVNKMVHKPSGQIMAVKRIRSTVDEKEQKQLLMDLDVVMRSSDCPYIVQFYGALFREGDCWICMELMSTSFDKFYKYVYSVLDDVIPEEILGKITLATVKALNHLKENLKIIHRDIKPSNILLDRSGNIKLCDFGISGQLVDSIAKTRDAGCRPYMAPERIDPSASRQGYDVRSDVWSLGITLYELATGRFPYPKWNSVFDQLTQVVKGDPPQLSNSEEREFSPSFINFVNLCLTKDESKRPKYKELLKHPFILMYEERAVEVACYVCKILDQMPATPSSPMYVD
STK38 (human), sequence (Q15208 whole entry, looked up): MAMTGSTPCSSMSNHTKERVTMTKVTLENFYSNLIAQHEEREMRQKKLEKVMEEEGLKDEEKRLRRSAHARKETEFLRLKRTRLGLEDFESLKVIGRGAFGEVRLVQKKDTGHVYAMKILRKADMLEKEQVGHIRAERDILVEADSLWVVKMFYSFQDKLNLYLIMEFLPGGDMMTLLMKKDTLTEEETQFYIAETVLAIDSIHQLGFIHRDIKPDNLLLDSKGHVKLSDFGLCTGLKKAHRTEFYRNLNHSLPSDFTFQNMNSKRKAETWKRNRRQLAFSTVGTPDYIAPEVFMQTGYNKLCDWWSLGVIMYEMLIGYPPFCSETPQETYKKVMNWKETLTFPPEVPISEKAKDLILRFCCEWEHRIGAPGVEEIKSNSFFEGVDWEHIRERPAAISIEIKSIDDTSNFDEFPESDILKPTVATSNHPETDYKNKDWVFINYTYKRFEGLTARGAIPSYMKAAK
RIPK1 (human), sequence (Q13546 whole entry, looked up): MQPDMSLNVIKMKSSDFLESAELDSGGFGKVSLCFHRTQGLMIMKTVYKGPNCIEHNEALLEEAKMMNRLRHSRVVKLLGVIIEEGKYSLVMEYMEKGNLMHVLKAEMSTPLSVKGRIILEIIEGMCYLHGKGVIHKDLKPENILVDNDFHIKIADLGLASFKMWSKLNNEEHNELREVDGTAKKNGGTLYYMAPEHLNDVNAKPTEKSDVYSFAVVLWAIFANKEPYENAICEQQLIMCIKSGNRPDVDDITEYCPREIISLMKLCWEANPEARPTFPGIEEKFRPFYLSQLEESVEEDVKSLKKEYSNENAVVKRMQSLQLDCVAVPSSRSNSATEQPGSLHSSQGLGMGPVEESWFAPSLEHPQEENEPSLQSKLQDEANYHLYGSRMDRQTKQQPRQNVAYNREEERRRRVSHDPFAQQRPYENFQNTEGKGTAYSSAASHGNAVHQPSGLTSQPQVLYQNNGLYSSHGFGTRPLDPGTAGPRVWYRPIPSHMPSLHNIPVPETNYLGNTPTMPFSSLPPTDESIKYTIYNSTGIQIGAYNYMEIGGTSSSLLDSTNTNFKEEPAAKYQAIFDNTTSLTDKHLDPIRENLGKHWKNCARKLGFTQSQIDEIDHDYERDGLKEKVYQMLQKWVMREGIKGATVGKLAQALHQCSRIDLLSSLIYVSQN
LIMK1 (human), sequence (P53667 whole entry, looked up): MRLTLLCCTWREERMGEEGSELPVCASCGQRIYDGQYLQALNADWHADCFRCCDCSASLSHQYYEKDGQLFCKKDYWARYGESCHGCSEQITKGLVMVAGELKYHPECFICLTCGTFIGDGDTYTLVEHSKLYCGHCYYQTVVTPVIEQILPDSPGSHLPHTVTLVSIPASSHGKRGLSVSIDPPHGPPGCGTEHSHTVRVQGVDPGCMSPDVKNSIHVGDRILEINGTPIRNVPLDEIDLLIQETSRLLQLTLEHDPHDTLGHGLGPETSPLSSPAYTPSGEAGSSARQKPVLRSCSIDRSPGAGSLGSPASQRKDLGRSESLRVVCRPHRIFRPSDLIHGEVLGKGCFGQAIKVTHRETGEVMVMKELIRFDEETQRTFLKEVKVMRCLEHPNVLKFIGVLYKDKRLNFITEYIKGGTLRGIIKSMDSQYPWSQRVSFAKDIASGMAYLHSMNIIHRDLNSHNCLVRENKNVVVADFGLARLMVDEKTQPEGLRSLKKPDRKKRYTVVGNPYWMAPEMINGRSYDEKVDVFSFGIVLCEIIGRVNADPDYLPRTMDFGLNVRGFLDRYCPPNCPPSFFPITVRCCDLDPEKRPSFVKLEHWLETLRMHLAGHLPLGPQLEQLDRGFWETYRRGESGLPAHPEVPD

COCCNCCCn1c(C(=O)CF)c(-c2ccc(C)cc2)c2c(N)ncnc21
kinase still bound, per cent of control [1]: 100% | kinase still bound, per cent of control [2]: 87% | kinase still bound, per cent of control [3]: 100% | kinase still bound, per cent of control [4]: 84% | kinase still bound, per cent of control [5]: 100% | kinase still bound, per cent of control [6]: 89% | kinase still bound, per cent of control [7]: 100% | kinase still bound, per cent of control [8]: 94% | kinase still bound, per cent of control [9]: 100% | kinase still bound, per cent of control [10]: 100% | kinase still bound, per cent of control [11]: 87% | kinase still bound, per cent of control [12]: 100% | kinase still bound, per cent of control [13]: 86% | kinase still bound, per cent of control [14]: 100% | kinase still bound, per cent of control [15]: 78% | kinase still bound, per cent of control [16]: 90% | kinase still bound, per cent of control [17]: 94% | kinase still bound, per cent of control [18]: 100% | kinase still bound, per cent of control [19]: 89% | kinase still bound, per cent of control [20]: 100% | kinase still bound, per cent of control [21]: 100% | kinase still bound, per cent of control [22]: 100% | kinase still bound, per cent of control [23]: 90% | kinase still bound, per cent of control [24]: 100% | kinase still bound, per cent of control [25]: 91% | kinase still bound, per cent of control [26]: 100% | kinase still bound, per cent of control [27]: 100% | kinase still bound, per cent of control [28]: 83% | kinase still bound, per cent of control [29]: 100% | kinase still bound, per cent of control [30]: 100% | kinase still bound, per cent of control [31]: 91% | kinase still bound, per cent of control [32]: 90% | kinase still bound, per cent of control [33]: 100% | kinase still bound, per cent of control [34]: 78% | kinase still bound, per cent of control [35]: 95% | kinase still bound, per cent of control [36]: 100% | kinase still bound, per cent of control [37]: 94% | kinase still bound, per cent of control [38]: 100% | kinase still bound, per cent of control [39]: 100% | kinase still bound, per cent of control [40]: 78% | kinase still bound, per cent of control [41]: 95% | kinase still bound, per cent of control [42]: 95% | kinase still bound, per cent of control [43]: 100%
